Results as given in patent US11306079B2, “3-(5-amino-pyrazin-2-yl)-benzenesulfonamide derivatives and related compounds as PI3K-gamma kinase inhibitors” (Incyte Corporation, priority 2017, dated 2022).
Counter-ions that a name gives are not always drawn.

Columns and labels:
[1] = biological target: PI3Kγ (p110γ) Recombinant Human Protein (Homo sapiens (Human), UniProt P48736); test: PI3K-γ Scintillation Proximity Assay; type: biochemical; conditions: 20 μM PIP2, 2 μM ATP, 13 nM PI3Kγ, 120 min, room temperature
In short: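 Recombinant human p110γ (13 nM) phosphorylated 20 μM PIP2 with 2 μM ATP plus [γ-33P]ATP in 20 mM MOPS pH 6.7, 10 mM MgCl2, 5 mM DTT, 0.03% CHAPS, 2% DMSO, 120 min at room temperature. Radiolabelled product was captured on WGA SPA beads and counted. IC50 came from curves of percent solvent-control activity.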

[2] = biological target: PI3Kδ (p110δ/p85α) Recombinant Human Protein (Homo sapiens (Human), UniProt O00329); test: PI3Kδ Scintillation Proximity Assay; type: biochemical; conditions: 20 μM PIP2, 2 μM ATP, 3.4 nM PI3Kδ, 120 min, room temperature
In short: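 Recombinant human p110δ/p85α (3.4 nM) phosphorylates 20 μM di-octanoyl PIP2 using 2 μM ATP spiked with [γ-33P]ATP, 120 min, room temperature, pH 6.7, 2% DMSO. Product measured by scintillation proximity; IC50 from dose-response fit.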

[3] = test system: Phosphorylated Ribosomal Protein S6 (RPS6) in THP-1 cells; test: THP-1 RPS6 ELISA Assay; type: cell-based; conditions: Homo sapiens; serum starved THP-1 cells, 2 hours with compound, 10 nM MCP-1 for 15 minutes, Phospho-RPS6 ELISA; read-out: PI3Kγ_THP1_RPS6_ELISA IC50
In short: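 Serum-starved THP-1 cells (2×10^5/well, RPMI) preincubated with compound 2 h at 37° C, then stimulated with 10 nM MCP-1 for 15 min. Lysates assayed by phospho-RPS6 ELISA, absorbance 450 nm (540 nm correction); IC50 from percent inhibition versus log concentration.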

Chain of PI3Kδ (p110δ/p85α) Recombinant Human Protein (O00329 whole entry): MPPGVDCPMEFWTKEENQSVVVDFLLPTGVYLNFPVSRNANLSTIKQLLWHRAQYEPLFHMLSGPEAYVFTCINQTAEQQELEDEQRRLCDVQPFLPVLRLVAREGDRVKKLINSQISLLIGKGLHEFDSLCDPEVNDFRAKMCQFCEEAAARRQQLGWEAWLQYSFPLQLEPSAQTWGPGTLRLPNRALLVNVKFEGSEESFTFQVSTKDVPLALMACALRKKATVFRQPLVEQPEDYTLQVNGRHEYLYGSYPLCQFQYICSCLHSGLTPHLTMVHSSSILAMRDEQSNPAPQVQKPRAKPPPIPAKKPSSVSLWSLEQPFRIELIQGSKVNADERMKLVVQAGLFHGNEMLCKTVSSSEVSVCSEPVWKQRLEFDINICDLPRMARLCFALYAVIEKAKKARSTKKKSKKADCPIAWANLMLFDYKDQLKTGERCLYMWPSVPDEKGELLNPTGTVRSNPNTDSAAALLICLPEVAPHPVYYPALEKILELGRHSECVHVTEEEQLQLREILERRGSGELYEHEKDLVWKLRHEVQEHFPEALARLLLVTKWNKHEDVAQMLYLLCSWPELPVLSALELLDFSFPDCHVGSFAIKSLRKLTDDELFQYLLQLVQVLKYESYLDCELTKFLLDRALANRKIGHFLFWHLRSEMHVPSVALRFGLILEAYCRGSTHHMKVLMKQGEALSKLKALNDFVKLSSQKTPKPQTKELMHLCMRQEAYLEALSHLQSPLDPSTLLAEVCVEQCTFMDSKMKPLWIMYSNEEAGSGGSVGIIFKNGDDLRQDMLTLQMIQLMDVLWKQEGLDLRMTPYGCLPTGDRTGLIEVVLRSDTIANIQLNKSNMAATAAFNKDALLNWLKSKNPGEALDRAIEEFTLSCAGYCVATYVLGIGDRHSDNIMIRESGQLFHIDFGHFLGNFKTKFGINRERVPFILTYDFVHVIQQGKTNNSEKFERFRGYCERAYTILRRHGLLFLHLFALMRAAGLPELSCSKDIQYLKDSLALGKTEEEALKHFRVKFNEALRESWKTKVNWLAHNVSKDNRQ
Chain of PI3Kδ (p110δ/p85α) Recombinant Human Protein (P27986 whole entry partner): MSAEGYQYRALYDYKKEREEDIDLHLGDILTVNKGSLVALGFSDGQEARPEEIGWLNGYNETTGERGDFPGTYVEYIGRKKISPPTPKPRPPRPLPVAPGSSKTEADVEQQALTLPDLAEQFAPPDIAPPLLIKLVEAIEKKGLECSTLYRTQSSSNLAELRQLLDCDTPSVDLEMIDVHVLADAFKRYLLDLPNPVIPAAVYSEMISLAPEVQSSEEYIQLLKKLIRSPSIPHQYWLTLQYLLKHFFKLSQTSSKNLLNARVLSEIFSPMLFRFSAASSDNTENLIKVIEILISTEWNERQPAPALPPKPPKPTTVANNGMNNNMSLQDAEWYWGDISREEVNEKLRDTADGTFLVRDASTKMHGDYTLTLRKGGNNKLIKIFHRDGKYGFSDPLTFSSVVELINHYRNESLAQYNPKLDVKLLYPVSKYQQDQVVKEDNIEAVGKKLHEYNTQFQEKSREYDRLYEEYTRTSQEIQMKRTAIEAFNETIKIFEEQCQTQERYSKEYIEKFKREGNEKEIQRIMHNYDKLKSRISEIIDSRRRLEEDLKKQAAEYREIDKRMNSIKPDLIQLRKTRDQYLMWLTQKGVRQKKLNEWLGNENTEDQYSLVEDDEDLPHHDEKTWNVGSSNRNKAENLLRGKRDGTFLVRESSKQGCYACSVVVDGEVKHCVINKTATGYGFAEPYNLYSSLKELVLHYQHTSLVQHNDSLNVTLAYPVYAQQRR
Chain of PI3Kγ (p110γ) Recombinant Human Protein (P48736 whole entry): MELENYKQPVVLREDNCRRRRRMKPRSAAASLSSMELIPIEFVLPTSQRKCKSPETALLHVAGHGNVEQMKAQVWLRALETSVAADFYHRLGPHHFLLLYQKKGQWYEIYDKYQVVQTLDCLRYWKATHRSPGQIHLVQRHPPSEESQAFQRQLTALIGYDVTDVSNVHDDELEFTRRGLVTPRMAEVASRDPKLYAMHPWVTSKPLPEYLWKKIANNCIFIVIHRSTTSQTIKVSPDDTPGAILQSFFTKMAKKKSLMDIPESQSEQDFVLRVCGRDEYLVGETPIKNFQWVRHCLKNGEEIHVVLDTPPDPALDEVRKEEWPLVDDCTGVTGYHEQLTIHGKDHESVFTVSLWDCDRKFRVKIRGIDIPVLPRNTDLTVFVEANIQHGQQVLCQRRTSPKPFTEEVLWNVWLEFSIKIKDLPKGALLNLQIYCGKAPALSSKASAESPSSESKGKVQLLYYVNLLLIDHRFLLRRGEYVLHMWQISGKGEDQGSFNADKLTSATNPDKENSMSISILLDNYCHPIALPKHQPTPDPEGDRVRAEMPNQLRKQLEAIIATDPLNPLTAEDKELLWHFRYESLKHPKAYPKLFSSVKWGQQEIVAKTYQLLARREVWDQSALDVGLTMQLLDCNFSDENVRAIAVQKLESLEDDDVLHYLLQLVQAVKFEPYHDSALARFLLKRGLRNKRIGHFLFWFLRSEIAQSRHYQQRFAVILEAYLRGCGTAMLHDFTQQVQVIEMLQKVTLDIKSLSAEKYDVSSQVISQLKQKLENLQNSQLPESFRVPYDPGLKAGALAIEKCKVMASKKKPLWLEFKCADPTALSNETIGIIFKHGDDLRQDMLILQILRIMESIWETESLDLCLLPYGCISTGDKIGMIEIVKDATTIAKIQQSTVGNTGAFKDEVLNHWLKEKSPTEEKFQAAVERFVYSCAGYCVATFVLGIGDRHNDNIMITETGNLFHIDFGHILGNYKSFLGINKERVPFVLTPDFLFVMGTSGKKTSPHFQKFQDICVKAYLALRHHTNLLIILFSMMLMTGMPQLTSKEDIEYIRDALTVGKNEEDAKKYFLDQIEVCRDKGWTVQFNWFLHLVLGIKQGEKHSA

In the case of `Cc1ccc(S(=O)(=O)NC23CCC(C#N)(C2)C3)cc1-c1cnc(N)c(-n2nccn2)n1` [Example 42, 3-(5-Amino-6-(2H-1,2,3-triazol-2-yl)pyrazin-2-yl)-N-(4-cyanobicyclo[2.1.1]hexan-1-yl)-4-methylbenzenesulfonamide Trifluoroacetate Salt], the IC50 [1] is reported as no more than 100 nM, the IC50 [2] is reported as no more than 500 nM and the IC50 [3] is reported as no more than 100 nM.
In the case of `Cc1cc(-c2nc(-c3cc(S(=O)(=O)NC45CCC(CO)(CC4)OC5)ccc3C)cnc2N)ccn1` [Example 18, 3-(5-Amino-6-(2-methylpyridin-4-yl)pyrazin-2-yl)-N-(1-(hydroxymethyl)-2-oxabicyclo[2.2.2]octan-4-yl)-4-methylbenzenesulfonamide Trifluoroacetate Salt], the IC50 [1] is reported as no more than 100 nM, the IC50 [2] is reported as no more than 500 nM and the IC50 [3] is reported as no more than 500 nM.
In the case of `Cc1ccc(S(=O)(=O)NC23CNC(C2)C3)cc1-c1cnc(N)c(-n2ccnn2)n1` [Example 59, 3-(5-amino-6-(1H-1,2,3-triazol-1-yl)pyrazin-2-yl)-N-(2-azabicyclo[2.1.1]hexan-4-yl)-4-methylbenzenesulfonamide trifluoroacetate salt], the IC50 [1] is reported as no more than 100 nM, the IC50 [2] is reported as no more than 500 nM and the IC50 [3] is reported as no more than 1000 nM.
Molecule `Cc1ccc(S(=O)(=O)NC23CC(C#N)(C2)C3)cc1-c1cnc(N)c(-n2cncn2)n1` [Example 23, 3-(5-Amino-6-(1H-1,2,4-triazol-1-yl)pyrazin-2-yl)-N-(3-cyanobicyclo[1.1.1]pentan-1-yl)-4-methylbenzenesulfonamide Trifluoroacetate Salt] has an IC50 [1] of no more than 100 nM, an IC50 [2] of no more than 100 nM and an IC50 [3] of no more than 500 nM.
`[2H]C([2H])([2H])c1ccc(S(=O)(=O)NC23CCN(CC2)C3)cc1-c1cnc(N)c(-c2cnco2)n1` [Example 94, 3-(5-amino-6-(oxazol-5-yl)pyrazin-2-yl)-N-(1-azabicyclo[2.2.1]heptan-4-yl)-4-(methyl-d3)benzenesulfonamide] was tested, and the IC50 [1] was no more than 100 nM, the IC50 [2] was no more than 500 nM and the IC50 [3] was no more than 100 nM.
`Cc1ncc(-c2cc(-c3cc(S(=O)(=O)NC45CCC(C#N)(C4)C5)ccc3C)cnc2N)s1` [Example 85, 3-(6-amino-5-(2-methylthiazol-5-yl)pyridin-3-yl)-N-(4-cyanobicyclo[2.1.1]hexan-1-yl)-4-methylbenzenesulfonamide] gave an IC50 [1] of no more than 100 nM, an IC50 [2] of no more than 100 nM and an IC50 [3] of no more than 100 nM.
In the case of `[2H]C([2H])([2H])c1ccc(S(=O)(=O)NC23CCC(C#N)(C2)C3)cc1-c1cnc(N)c(-c2ncccn2)n1` [Example 70, 3-(5-Amino-6-(pyrimidin-2-yl)pyrazin-2-yl)-N-(4-cyanobicyclo[2.1.1]hexan-1-yl)-4-(methyl-d3)benzenesulfonamide trifluoroacetate salt], the IC50 [1] is reported as no more than 100 nM, the IC50 [2] is reported as less than 2000 nM and the IC50 [3] is reported as no less than 1000 nM.
`Cc1ccc(S(=O)(=O)NC23COC(C)(C2)C3)cc1-c1cnc(N)c(-c2cn(C)nc2C)n1` [Example 12, 3-(5-Amino-6-(1,3-dimethyl-1H-pyrazol-4-yl)pyrazin-2-yl)-4-methyl-N-(1-methyl-2-oxabicyclo[2.1.1]hexan-4-yl)benzenesulfonamide trifluoroacetate salt] showed an IC50 [1] of no more than 100 nM, an IC50 [2] of no more than 500 nM and an IC50 [3] of no more than 500 nM.
`Cc1ccc(S(=O)(=O)NC23CC(CO)(C2)C3)cc1-c1cnc(N)c(-n2cncn2)n1` [Example 24, 3-(5-Amino-6-(1H-1,2,4-triazol-1-yl)pyrazin-2-yl)-N-(3-(hydroxymethyl)bicyclo[1.1.1]pentan-1-yl)-4-methylbenzenesulfonamide trifluoroacetate salt] gave an IC50 [1] of no more than 100 nM, an IC50 [2] of no more than 500 nM and an IC50 [3] of no more than 100 nM.
With `[2H]C([2H])([2H])c1ccc(S(=O)(=O)NC23CC(CO)(C2)C3)cc1-c1cnc(N)c(-c2cnco2)n1` [Example 75, 3-(5-Amino-6-(oxazol-5-yl)pyrazin-2-yl)-N-(3-(hydroxymethyl)bicyclo[1.1.1]pentan-1-yl)-4-(methyl-d3)benzenesulfonamide trifluoroacetate salt] the IC50 [1] was no more than 100 nM, the IC50 [2] was no more than 500 nM and the IC50 [3] was no more than 100 nM.
In the case of `Cc1ncc(-c2nc(-c3cc(S(=O)(=O)NC45CCC(O)(CC4)C5)ccc3C)cnc2N)s1` [Example 7, 3-(5-Amino-6-(2-methylthiazol-5-yl)pyrazin-2-yl)-N-(4-hydroxybicyclo[2.2.1]heptan-1-yl)-4-methylbenzenesulfonamide trifluoroacetate salt], the IC50 [1] is reported as no more than 100 nM, the IC50 [2] is reported as no more than 100 nM and the IC50 [3] is reported as no more than 100 nM.
Molecule `[2H]C([2H])([2H])c1ccc(S(=O)(=O)NC23CCN(CC2)C3)cc1-c1cnc(N)c(-c2ccncn2)n1` [Example 95, 3-(5-amino-6-(pyrimidin-4-yl)pyrazin-2-yl)-N-(1-azabicyclo[2.2.1]heptan-4-yl)-4-(methyl-d3)benzenesulfonamide] has an IC50 [1] of no more than 100 nM, an IC50 [2] of no more than 100 nM and an IC50 [3] of no more than 100 nM.
`O=C(O)C(F)(F)F.[2H]C([2H])([2H])c1ccc(S(=O)(=O)NC23CNC(C2)C3)cc1-c1cnc(N)c(-c2cnc(C3CC3)s2)n1` [Example 55, 3-(5-Amino-6-(2-cyclopropylthiazol-5-yl)pyrazin-2-yl)-N-(2-azabicyclo[2.1.1]hexan-4-yl)-4-(methyl-d3)benzenesulfonamide trifluoroacetate salt] gave an IC50 [1] of no more than 100 nM, an IC50 [2] of no more than 100 nM and an IC50 [3] of no more than 500 nM.
`CNC(=O)OCC12CC(NS(=O)(=O)c3ccc(C)c(-c4cnc(N)c(-n5cncn5)n4)c3)(C1)C2` [Example 31, (3-(3-(5-Amino-6-(1H-1,2,4-triazol-1-yl)pyrazin-2-yl)-4-methylphenylsulfonamido)bicyclo[1.1.1]pentan-1-yl)methyl Methylcarbamate Trifluoroacetate Salt] showed an IC50 [1] of no more than 100 nM, an IC50 [2] of no more than 500 nM and an IC50 [3] of no more than 500 nM.
With `Cc1ccc(S(=O)(=O)NC23CCC(C#N)(C2)C3)cc1-c1cnc(N)c(-c2ncn(C)n2)n1` [Example 46, 3-(5-Amino-6-(1-methyl-1H-1,2,4-triazol-3-yl)pyrazin-2-yl)-N-(4-cyanobicyclo[2.1.1]hexan-1-yl)-4-methylbenzenesulfonamide Trifluoroacetate Salt] the IC50 [1] was no more than 100 nM, the IC50 [2] was no more than 100 nM and the IC50 [3] was no more than 500 nM.
In the case of `Cc1ncc(-c2nc(-c3cc(S(=O)(=O)NC45COC(C(C)O)(C4)C5)ccc3C)cnc2N)s1` (stereo not drawn) [Example 8, 3-(5-Amino-6-(2-methylthiazol-5-yl)pyrazin-2-yl)-N-(1-(1-hydroxyethyl)-2-oxabicyclo[2.1.1]hexan-4-yl)-4-methylbenzenesulfonamide trifluoroacetate salt], the IC50 [1] is reported as no more than 100 nM, the IC50 [2] is reported as no more than 100 nM and the IC50 [3] is reported as no more than 100 nM.
In the case of `Cc1ccc(S(=O)(=O)NC23COC(CO)(C2)C3)cc1-c1cnc(N)c(-n2cncn2)n1` [Example 27, 3-(5-Amino-6-(1H-1,2,4-triazol-1-yl)pyrazin-2-yl)-N-(1-(hydroxymethyl)-2-oxabicyclo[2.1.1]hexan-4-yl)-4-methylbenzenesulfonamide trifluoroacetate salt], the IC50 [1] is reported as no more than 100 nM, the IC50 [2] is reported as no more than 500 nM and the IC50 [3] is reported as no more than 500 nM.
`Cc1ccc(S(=O)(=O)NC23CCC(C#N)(C2)C3)cc1-c1cnc(N)c(-n2cncn2)n1` [Example 28, 3-(5-Amino-6-(1H-1,2,4-triazol-1-yl)pyrazin-2-yl)-N-(4-cyanobicyclo[2.1.1]hexan-1-yl)-4-methylbenzenesulfonamide trifluoroacetate salt] gave an IC50 [1] of no more than 100 nM, an IC50 [2] of no more than 500 nM and an IC50 [3] of no more than 100 nM.
In the case of `[2H]C([2H])([2H])c1ccc(S(=O)(=O)NC23CC(C#N)(C2)C3)cc1-c1cnc(N)c(-c2cnco2)n1` [Example 73, 3-(5-Amino-6-(oxazol-5-yl)pyrazin-2-yl)-N-(3-cyanobicyclo[1.1.1]pentan-1-yl)-4-(methyl-d3)benzenesulfonamide trifluoroacetate salt], the IC50 [1] is reported as no more than 100 nM, the IC50 [2] is reported as no more than 100 nM and the IC50 [3] is reported as no more than 100 nM.
`Cc1ccc(S(=O)(=O)NC23CCC(CO)(C2)C3)cc1-c1cnc(N)c(-c2cn(C)nc2C)n1` [Example 13, 3-(5-Amino-6-(1,3-dimethyl-1H-pyrazol-4-yl)pyrazin-2-yl)-N-(4-(hydroxymethyl)bicyclo[2.1.1]hexan-1-yl)-4-methylbenzenesulfonamide trifluoroacetate salt] was tested, and the IC50 [1] was no more than 100 nM, the IC50 [2] was no more than 500 nM and the IC50 [3] was no more than 500 nM.
`CCOC(=O)NC12CC(NS(=O)(=O)c3ccc(C)c(-c4cnc(N)c(-n5cncn5)n4)c3)(C1)C2` [Example 39, Ethyl 3-(3-(5-amino-6-(1H-1,2,4-triazol-1-yl)pyrazin-2-yl)-4-methylphenylsulfonamido)bicyclo[1.1.1]pentan-1-ylcarbamate Trifluoroacetate Salt] was tested, and the IC50 [1] was no more than 100 nM, the IC50 [2] was no more than 500 nM and the IC50 [3] was no more than 500 nM.
In the case of `[2H]C([2H])([2H])c1ccc(S(=O)(=O)NC23COC(CO)(C2)C3)cc1-c1cnc(N)c(-c2cnc(C3CC3)s2)n1` [Example 61, 3-(5-Amino-6-(2-cyclopropylthiazol-5-yl)pyrazin-2-yl)-N-(1-(hydroxymethyl)-2-oxabicyclo[2.1.1]hexan-4-yl)-4-(methyl-d3)benzenesulfonamide Trifluoroacetate Salt], the IC50 [1] is reported as no more than 100 nM, the IC50 [2] is reported as no more than 100 nM and the IC50 [3] is reported as no more than 100 nM.
